Measurements reported in paper PMC12431658, “Versatile roles of rubredoxin reductase of Pseudomonas aeruginosa TBCF10839 in virulence and stress protection” (PLOS Pathogens, 2025).

Target: T1, rubredoxin reductase RubB (also RubR, RdxR) (Pseudomonas aeruginosa, UniProt Q9HTK9)
T1 construct: gene alkT; gene 1,155 bp
Assay: stopped-flow FAD fluorescence (excitation […] nm)
Type: biochemical
Conditions: pH 8.0, 0.1 M NaCl, 25 °C; reduction of bound FAD; no RubA2

T1 sequence (Q9HTK9 whole entry): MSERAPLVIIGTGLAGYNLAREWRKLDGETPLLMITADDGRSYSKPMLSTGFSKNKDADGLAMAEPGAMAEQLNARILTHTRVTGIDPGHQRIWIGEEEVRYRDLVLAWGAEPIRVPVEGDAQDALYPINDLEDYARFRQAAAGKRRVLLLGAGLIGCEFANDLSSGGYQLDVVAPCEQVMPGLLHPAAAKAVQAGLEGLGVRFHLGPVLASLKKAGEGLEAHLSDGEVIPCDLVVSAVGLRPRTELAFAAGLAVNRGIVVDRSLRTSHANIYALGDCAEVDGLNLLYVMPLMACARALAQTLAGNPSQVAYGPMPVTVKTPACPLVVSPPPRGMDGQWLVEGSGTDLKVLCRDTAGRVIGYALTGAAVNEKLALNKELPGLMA

NC(=O)C1=CN([C@@H]2O[C@H](COP(=O)(O)OP(=O)(O)OC[C@H]3O[C@@H](n4cnc5c(N)ncnc54)[C@H](O)[C@@H]3O)[C@@H](O)[C@H]2O)C=CC1 [NADH]
stopped-flow FAD fluorescence (excitation 436 nm): after the addition of NADH the FAD fluorophore was reduced within milliseconds to FADH2
